What follows are cell lines tested with C1CC(C2=C(C1)C3=C(N2)C=CC(=C3)Cl)C(=O)N [Selisistat] + CC(=O)c1c(C)c2cnc(Nc3ccc(N4CCNCC4)cn3)nc2n(C2CCCC2)c1=O [Palbociclib] (partner 0.5 µM) (assay: relative viability (nuclei count vs DMSO), 5 days (fraction); higher = more cells survive). Conditions: first compound 0.4 µM.
Procedure, shortened: (§1)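 Values are medians from duplicate plates. Each reflects relative viability, defined as the nuclei count of treated wells over that of vehicle wells. Lung cancer cell lines in 1536-well plates were pin-tool dosed one day after seeding with one drug alone or with a fixed anchor-drug dose plus five library-drug doses (not always all listed) in √10 steps, then fixed, stained and imaged at 4× after 5 days.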

Row | Cell Line | relative viability
1 | NCI-H1975 | 0.585
2 | RERF-LC-KJ | 1.15
3 | ABC-1 | 0.713
4 | NCI-H358 | 0.137
5 | NCI-H650 | 0.379
6 | PC-3 [JPC-3] | 0.608

Same assay, conditions: first compound 1.265 µM

Row | Cell Line | relative viability
7 | NCI-H1975 | 0.585
8 | RERF-LC-KJ | 1.02
9 | ABC-1 | 0.695
10 | NCI-H358 | 0.128
11 | NCI-H650 | 0.319
12 | PC-3 [JPC-3] | 0.636

Same assay, conditions: first compound 4 µM

Row | Cell Line | relative viability
13 | NCI-H1975 | 0.38
14 | RERF-LC-KJ | 0.995
15 | NCI-H358 | 0.128
16 | NCI-H650 | 0.443

Same assay, conditions: first compound 12.65 µM

Row | Cell Line | relative viability
17 | NCI-H1975 | 0.478
18 | RERF-LC-KJ | 0.909
19 | ABC-1 | 0.563
20 | NCI-H358 | 0.192
21 | NCI-H650 | 0.387
22 | PC-3 [JPC-3] | 0.571

Same assay, conditions: first compound 40 µM

Row | Cell Line | relative viability
23 | NCI-H1975 | 0.523
24 | RERF-LC-KJ | 0.952
25 | ABC-1 | 0.735
26 | NCI-H358 | 0.149
27 | NCI-H650 | 0.339
28 | PC-3 [JPC-3] | 0.529

Each cell line was assayed with C1CC(C2=C(C1)C3=C(N2)C=CC(=C3)Cl)C(=O)N [Selisistat] + COc1cccc2cc(-c3nc([C@H]4CC[C@H](C(=O)O)CC4)n4ncnc(N)c34)[nH]c12 [OSI-027] (partner 0.5 µM) in the same assay as above. Conditions: first compound 0.4 µM.
Procedure, shortened: as §1

Row | Cell Line | relative viability
29 | NCI-H1975 | 0.678
30 | RERF-LC-KJ | 0.742
31 | ABC-1 | 0.499
32 | NCI-H358 | 0.926
33 | NCI-H650 | 0.524
34 | PC-3 [JPC-3] | 0.931

Same assay, conditions: first compound 1.265 µM

Row | Cell Line | relative viability
35 | NCI-H1975 | 0.718
36 | RERF-LC-KJ | 0.525
37 | ABC-1 | 0.447
38 | NCI-H358 | 0.802
39 | NCI-H650 | 0.523
40 | PC-3 [JPC-3] | 0.776

Same assay, conditions: first compound 4 µM

Row | Cell Line | relative viability
41 | NCI-H1975 | 0.62
42 | RERF-LC-KJ | 0.51
43 | ABC-1 | 0.331
44 | NCI-H358 | 0.363
45 | NCI-H650 | 0.715
46 | PC-3 [JPC-3] | 0.739

Same assay, conditions: first compound 12.65 µM

Row | Cell Line | relative viability
47 | NCI-H1975 | 0.659
48 | RERF-LC-KJ | 0.532
49 | ABC-1 | 0.442
50 | NCI-H358 | 0.709
51 | NCI-H650 | 0.496
52 | PC-3 [JPC-3] | 0.662

Same assay, conditions: first compound 40 µM

Row | Cell Line | relative viability
53 | NCI-H1975 | 0.626
54 | RERF-LC-KJ | 0.533
55 | ABC-1 | 0.436
56 | NCI-H358 | 0.905
57 | NCI-H650 | 0.555
58 | PC-3 [JPC-3] | 0.731

What follows are cell lines tested with C1CC(C2=C(C1)C3=C(N2)C=CC(=C3)Cl)C(=O)N [Selisistat] + N=C(N)NC(=N)NCCc1ccccc1 [Phenformin] (partner 250 µM) in the same assay as above. Conditions: first compound 0.4 µM.
Procedure, shortened: as §1

Row | Cell Line | relative viability
59 | NCI-H1975 | 0.419
60 | RERF-LC-KJ | 0.5
61 | ABC-1 | 0.221
62 | NCI-H358 | 0.358
63 | NCI-H650 | 0.499
64 | PC-3 [JPC-3] | 0.488

Same assay, conditions: first compound 1.265 µM

Row | Cell Line | relative viability
65 | NCI-H1975 | 0.422
66 | RERF-LC-KJ | 0.412
67 | ABC-1 | 0.213
68 | NCI-H358 | 0.281
69 | NCI-H650 | 0.432
70 | PC-3 [JPC-3] | 0.481

Same assay, conditions: first compound 4 µM

Row | Cell Line | relative viability
71 | NCI-H1975 | 0.366
72 | RERF-LC-KJ | 0.399
73 | ABC-1 | 0.265
74 | NCI-H358 | 0.186
75 | NCI-H650 | 0.441
76 | PC-3 [JPC-3] | 0.48

Same assay, conditions: first compound 12.65 µM

Row | Cell Line | relative viability
77 | NCI-H1975 | 0.41
78 | RERF-LC-KJ | 0.338
79 | ABC-1 | 0.265
80 | NCI-H358 | 0.332
81 | NCI-H650 | 0.432
82 | PC-3 [JPC-3] | 0.487

Same assay, conditions: first compound 40 µM

Row | Cell Line | relative viability
83 | NCI-H1975 | 0.382
84 | RERF-LC-KJ | 0.362
85 | ABC-1 | 0.263
86 | NCI-H358 | 0.412
87 | NCI-H650 | 0.485
88 | PC-3 [JPC-3] | 0.48

The cell lines below were run with c1ccc2c(CCNc3ccc(Nc4ccncc4)cc3)c[nH]c2c1 [Serdemetan] + N=C(N)NC(=N)NCCc1ccccc1 [Phenformin] (partner 250 µM) in the same assay as above. Conditions: first compound 0.04 µM.
Procedure, shortened: as §1

Row | Cell Line | relative viability
89 | NCI-H1975 | 0.401
90 | RERF-LC-KJ | 0.349
91 | ABC-1 | 0.229
92 | NCI-H358 | 0.302
93 | NCI-H650 | 0.417
94 | PC-3 [JPC-3] | 0.475

Same assay, conditions: first compound 0.1265 µM

Row | Cell Line | relative viability
95 | NCI-H1975 | 0.416
96 | RERF-LC-KJ | 0.507
97 | ABC-1 | 0.235
98 | NCI-H358 | 0.324
99 | NCI-H650 | 0.44
100 | PC-3 [JPC-3] | 0.494

Same assay, conditions: first compound 0.4 µM

Row | Cell Line | relative viability
101 | NCI-H1975 | 0.427
102 | RERF-LC-KJ | 0.389
103 | ABC-1 | 0.197
104 | NCI-H358 | 0.273
105 | NCI-H650 | 0.506
106 | PC-3 [JPC-3] | 0.486

Same assay, conditions: first compound 1.265 µM

Row | Cell Line | relative viability
107 | RERF-LC-KJ | 0.404
108 | ABC-1 | 0.204
109 | NCI-H358 | 0.286
110 | NCI-H650 | 0.403
111 | PC-3 [JPC-3] | 0.482

Same assay, conditions: first compound 4 µM

Row | Cell Line | relative viability
112 | NCI-H1975 | 0.415
113 | RERF-LC-KJ | 0.399
114 | ABC-1 | 0.224
115 | NCI-H358 | 0.308
116 | NCI-H650 | 0.481
117 | PC-3 [JPC-3] | 0.532

From the supplement of paper PMC10307832
